# Reference: PubChem BioAssay AID1259407 (Chemical Carcinogenesis Research Information System (CCRIS), 2018)
# Active and inactive are the calls of the source. How the calls were made is not given here.
# System: CCRIS mutagenicity, Ames/micronucleus/aberration tests
# Test: CCRIS mutagenicity studies
# [1] = Test System: AMES SALMONELLA TYPHIMURIUM, Strain/Indicator: TA100, Metabolic Activation: NONE, Method: PREINCUBATION
smiles,measurement,setting,value
O=[N+]([O-])NC1=NCCN1Cc1ccc(Cl)nc1,mutagenic call,"End Point: In vitro micronucleus, Test System: Human lymphocytes, Metabolic Activation: None",inactive; negative
same,mutagenic call,"End Point: In vitro micronucleus, Test System: Human peripheral blood lymphocytes, Metabolic Activation: None",inactive; negative
same,mutagenic call,"End Point: In vitro micronucleus, Test System: Human peripheral blood lymphocytes, Metabolic Activation: Rat, Liver, S-9 (10%)",active; positive (at highest dose only)
same,mutagenic call,"End Point: In vivo chromosomal aberrations, Test System: Bone marrow polychromatic erythrocytes, Species: Rat, Strain/Sex: Wistar, Route: Oral",active; positive (structural changes)
same,mutagenic call,"End Point: In vivo micronucleus, Test System: Bone marrow polychromatic erythrocytes, Species: Rat, Strain/Sex: Wistar/Male, Route: Oral",active; positive (at high dose)
same,mutagenic call,"End Point: In vivo micronucleus, Test System: Bone marrow polychromatic erythrocytes, Species: Rat, Strain/Sex: Wistar, Route: Oral",active; positive
same,mutagenic call,"Test System: Ames Salmonella typhimurium, Strain/Indicator: TA98, Metabolic Activation: None, Method: Preincubation",active; positive
same,mutagenic call,"Test System: Ames Salmonella typhimurium, Strain/Indicator: TA98, Metabolic Activation: Rat, Liver, S-9 (10%), Aroclor 1254, Method: Preincubation",active; positive
same,mutagenic call,"Test System: Ames Salmonella typhimurium, Strain/Indicator: TA100, Metabolic Activation: None, Method: Preincubation",inactive; negative
same,mutagenic call,"Test System: Ames Salmonella typhimurium, Strain/Indicator: TA100, Metabolic Activation: Rat, Liver, S-9 (10%), Aroclor 1254, Method: Preincubation",inactive; negative
O=C(Cl)c1ccc(C(=O)Cl)cc1,mutagenic call,"Test System: AMES SALMONELLA TYPHIMURIUM, Strain/Indicator: TA98, Metabolic Activation: NONE, Method: PREINCUBATION",active; positive
same,mutagenic call,"Test System: AMES SALMONELLA TYPHIMURIUM, Strain/Indicator: TA98, Metabolic Activation: RAT LIVER S-9, PCB, Method: PREINCUBATION",active; positive
same,mutagenic call,[1],active; positive
same,mutagenic call,"Test System: AMES SALMONELLA TYPHIMURIUM, Strain/Indicator: TA100, Metabolic Activation: RAT LIVER S-9, PCB, Method: PREINCUBATION",active; positive
same,mutagenic call,"Test System: AMES SALMONELLA TYPHIMURIUM, Strain/Indicator: TA104, Metabolic Activation: NONE, Method: PREINCUBATION",active; positive
same,mutagenic call,"Test System: AMES SALMONELLA TYPHIMURIUM, Strain/Indicator: TA104, Metabolic Activation: RAT LIVER S-9, PCB, Method: PREINCUBATION",active; positive
same,mutagenic call,"Test System: E.COLI, Strain/Indicator: WP2 UVRA, Metabolic Activation: NONE, Method: PREINCUBATION",active; positive
same,mutagenic call,"Test System: E.COLI, Strain/Indicator: WP2 UVRA, Metabolic Activation: RAT LIVER S-9, PCB, Method: PREINCUBATION",active; positive
Cc1c2ccccc2cc2ccc3ccccc3c12,mutagenic call,"Test System: AMES SALMONELLA TYPHIMURIUM, Strain/Indicator: TA98, Method: STANDARD PLATE",active; positive
same,mutagenic call,"Test System: AMES SALMONELLA TYPHIMURIUM, Strain/Indicator: TA100, Metabolic Activation: RAT, INTACT HEPATOCYTES, AROCLOR 1254, Method: PREINCUBATION",active; positive
same,mutagenic call,"Test System: AMES SALMONELLA TYPHIMURIUM, Strain/Indicator: TA100, Metabolic Activation: RAT, LIVER, S-9, PHENOBARBITAL, Method: STANDARD PLATE",active; positive
same,mutagenic call,"Test System: AMES SALMONELLA TYPHIMURIUM, Strain/Indicator: TA100, Metabolic Activation: RAT, NADPH-FORTIFIED HOMOGENIZED HEPATOCYTES, AROCLOR 1254, Method: PREINCUBATION",active; positive
same,mutagenic call,"Test System: AMES SALMONELLA TYPHIMURIUM, Strain/Indicator: TA100, Metabolic Activation: RAT, SONICATED HEPATOCYTES, AROCLOR 1254, Method: PREINCUBATION",active; positive
same,mutagenic call,"Test System: AMES SALMONELLA TYPHIMURIUM, Strain/Indicator: TA100, Method: STANDARD PLATE",active; positive
[Cl][Ni][Cl],mutagenic call,"End Point: IN VITRO MICRONUCLEUS, Test System: CHL/IU CELLS, Metabolic Activation: NONE",active; positive
same,mutagenic call,"Test System: AMES SALMONELLA TYPHIMURIUM, Strain/Indicator: TA102, Metabolic Activation: NONE, Method: PREINCUBATION",inactive; negative
same,mutagenic call,"Test System: AMES SALMONELLA TYPHIMURIUM, Strain/Indicator: TA1535, Metabolic Activation: NONE, Method: PREINCUBATION",inactive; negative
same,mutagenic call,"Test System: AMES SALMONELLA TYPHIMURIUM, Strain/Indicator: TA1538, Metabolic Activation: NONE, Method: PREINCUBATION",inactive; negative
same,mutagenic call,"Test System: AMES SALMONELLA TYPHIMURIUM, Strain/Indicator: TA1975, Metabolic Activation: NONE, Method: PREINCUBATION",inactive; negative
same,mutagenic call,"Test System: AMES SALMONELLA TYPHIMURIUM, Strain/Indicator: TA1978, Metabolic Activation: NONE, Method: PREINCUBATION",inactive; negative
same,mutagenic call,"Test System: CHINESE HAMSTER G10, Strain/Indicator: G10 (GPT)/6-THIOGUANINE, Metabolic Activation: NONE",active; positive
same,mutagenic call,"Test System: CHINESE HAMSTER G10, Strain/Indicator: G10/6-THIOGUANINE, Metabolic Activation: NONE",active; positive
same,mutagenic call,"Test System: CHINESE HAMSTER G12, Strain/Indicator: G12 (GPT)/6-THIOGUANINE, Metabolic Activation: NONE",active; positive
same,mutagenic call,"Test System: CHINESE HAMSTER G12, Strain/Indicator: G12/6-THIOGUANINE, Metabolic Activation: NONE",active; positive
same,mutagenic call,"Test System: CHINESE HAMSTER V-79, Strain/Indicator: SP5 V-79 (HPRT)/6-THIOGUANINE, Metabolic Activation: NONE, Method: STANDARD PLATE",inactive; negative
same,mutagenic call,"Test System: CHINESE HAMSTER V-79, Strain/Indicator: SPD8 V-79 (HPRT)/6-THIOGUANINE, Metabolic Activation: NONE, Method: STANDARD PLATE",active; positive
same,mutagenic call,"Test System: E. COLI, Strain/Indicator: WP2 UVRA, Metabolic Activation: NONE, Method: SPOT TEST",active; positive
same,mutagenic call,"Test System: E. COLI, Strain/Indicator: WP2 UVRA, Metabolic Activation: NONE, Method: STANDARD PLATE",active; positive
same,mutagenic call,"Test System: UDS HUMAN AMNION FL CELL LINE, Strain/Indicator: THY INCORP, Metabolic Activation: NONE, Method: LIQUID SCINTILLATION COUNTING",active; positive
CC\C=C/C=C\C=C/C=C\C=C/OCC(C)O (centres undefined),mutagenic call,[1],active; positive
COC1=CC(=O)C(=O)C(C(C)(C)C)=C1,mutagenic call,"Test System: AMES SALMONELLA TYPHIMURIUM, Strain/Indicator: TA98, Metabolic Activation: NONE, Method: STANDARD PLATE",inactive; negative
same,mutagenic call,"Test System: AMES SALMONELLA TYPHIMURIUM, Strain/Indicator: TA98, Metabolic Activation: RAT, LIVER, S-9, AROCLOR 1254, Method: STANDARD PLATE",inactive; negative
same,mutagenic call,"Test System: AMES SALMONELLA TYPHIMURIUM, Strain/Indicator: TA100, Metabolic Activation: NONE, Method: STANDARD PLATE",inactive; negative
same,mutagenic call,"Test System: AMES SALMONELLA TYPHIMURIUM, Strain/Indicator: TA100, Metabolic Activation: RAT, LIVER, S-9, AROCLOR 1254, Method: STANDARD PLATE",inactive; negative
CC(=O)N(CC(O)CO)c1c(I)c(C(=O)NCCO)c(I)c(C(=O)NCC(O)CO)c1I (centres undefined),mutagenic call,"Test System: AMES SALMONELLA TYPHIMURIUM, Strain/Indicator: TA98, Metabolic Activation: NONE",inactive; negative
same,mutagenic call,"Test System: AMES SALMONELLA TYPHIMURIUM, Strain/Indicator: TA98, Metabolic Activation: RAT, LIVER, S-9",inactive; negative
same,mutagenic call,"Test System: AMES SALMONELLA TYPHIMURIUM, Strain/Indicator: TA100, Metabolic Activation: NONE",inactive; negative
same,mutagenic call,"Test System: AMES SALMONELLA TYPHIMURIUM, Strain/Indicator: TA100, Metabolic Activation: RAT, LIVER, S-9",inactive; negative
same,mutagenic call,"Test System: AMES SALMONELLA TYPHIMURIUM, Strain/Indicator: TA1535, Metabolic Activation: NONE",inactive; negative
same,mutagenic call,"Test System: AMES SALMONELLA TYPHIMURIUM, Strain/Indicator: TA1535, Metabolic Activation: RAT, LIVER, S-9",inactive; negative
same,mutagenic call,"Test System: AMES SALMONELLA TYPHIMURIUM, Strain/Indicator: TA1537, Metabolic Activation: NONE",inactive; negative
same,mutagenic call,"Test System: AMES SALMONELLA TYPHIMURIUM, Strain/Indicator: TA1537, Metabolic Activation: RAT, LIVER, S-9",inactive; negative
same,mutagenic call,"Test System: E.COLI, Strain/Indicator: WP2 UVRA, Metabolic Activation: NONE",inactive; negative
same,mutagenic call,"Test System: E.COLI, Strain/Indicator: WP2 UVRA, Metabolic Activation: RAT, LIVER, S-9",inactive; negative
